In paper PMC12884720, “Gabpα‐Pparγ Complex Determines Glycolytic Capacity and Lactic Acid Homeostasis in Brown Fat” (Advanced Science, 2025):
Residues, ends and D or L forms follow the SMILES beside them. *: point of attachment. FITC = O=C1OC2(c3ccc(O)cc3Oc3cc(O)ccc32)c2ccc(NC(=S)*)cc21

What was measured:
wild‐type mice [1] = test: Oxygen consumption and heat production (CLAMS); format: in vivo, wild‐type C57BL/6J mice; settings: GPCBi‐injected mice, room temperature, n = 4 (Figure 4n,o; Figure S4i,j)
Procedure: The mouse experiments were approved by the Institutional Animal Care and Use Committee of the Institute of Model Animals of Tongji Hospital, Huazhong University of Science and Technology, and were performed in compliance with all relevant ethical regulations (approval number: TJH‐202110044). Unless otherwise noted, the mice were housed in a pathogen‐free and climate‐controlled environment (22–25 °C, 40‐60% humidity) and were given free access to food and water on a 12 h light/dark cycle. Wild‐type C57BL/6J mice were obtained from Beijing Huafukang Bioscience Co., Ltd. (Beijing, China). Gabpa ^flox/flox , Adipoq^Cre , and Ucp1^Cre mice were purchased from Cyagen Biosciences, Inc. (Guangzhou, China). For GPCBi treatment, wild‐type mice were orthotopically injected GPCBi (FITC‐[…]; 5.5 mg kg^−1) or scramble peptide (FITC‐[…]; 5.5 mg kg^−1) into the BAT at room temperature for one week. […] Body weight was measured every week, and tissue weights were measured at the time of euthanasia.
Three‐month‐old mice (Gabpα ^Ucp1 KO, Gabpα ^Adipo KI, peptide GPCBi, and respective littermate control mice) were subjected to whole‐body energy expenditure measurements in metabolic chambers. Oxygen consumption and heat production were monitored via a Comprehensive Laboratory Animal Monitoring System (CLAMS, Columbus Instruments) at specific temperatures. […]

wild‐type mice [2] = test: Fasting blood glucose; format: in vivo, wild‐type C57BL/6J mice; settings: GPCBi 5.5 mg kg^−1 orthotopically into BAT; n = 5 (Figure S4h)
Procedure: (§1) The mouse experiments were approved by the Institutional Animal Care and Use Committee of the Institute of Model Animals of Tongji Hospital, Huazhong University of Science and Technology, and were performed in compliance with all relevant ethical regulations (approval number: TJH‐202110044). Unless otherwise noted, the mice were housed in a pathogen‐free and climate‐controlled environment (22–25 °C, 40‐60% humidity) and were given free access to food and water on a 12 h light/dark cycle. Wild‐type C57BL/6J mice were obtained from Beijing Huafukang Bioscience Co., Ltd. (Beijing, China). Gabpa ^flox/flox , Adipoq^Cre , and Ucp1^Cre mice were purchased from Cyagen Biosciences, Inc. (Guangzhou, China). For GPCBi treatment, wild‐type mice were orthotopically injected GPCBi (FITC‐[…]; 5.5 mg kg^−1) or scramble peptide (FITC‐[…]; 5.5 mg kg^−1) into the BAT at room temperature for one week. […] For cold exposure, the mice were caged individually and exposed to a temperature of 10 or 4 °C. The mice were euthanized by CO2 inhalation. […] Body weight was measured every week, and tissue weights were measured at the time of euthanasia.

[3] = tested on: differentiated iBAT‐SVF cells; test: Relative mRNA and protein levels in differentiated iBAT-SVF cells; format: cell-based, C57BL/6 mice; settings: GPCBi 5 µM
Procedure: Interscapular BAT‐SVF cells were obtained from eight‐week‐old male C57BL/6 mice. […] The tissue homogenates were filtered through a 70 µm cell strainer and centrifuged at 1000 rpm for 5 min. The cell pellet was resuspended in DMEM supplemented with 10% FBS (Sigma–Aldrich) and 1% penicillin/streptomycin (P/S) at 37 °C with 5% CO2. The next day, BAT‐SVF cells were immortalized with the SV40 large T antigen according to a published protocol.^[ [32] ^] […] After 48 h, the induction medium was replaced with a maintenance cocktail (5 µg mL^−1 insulin, 1 nM triiodo‐L‐thyronine, and 1 µM rosiglitazone) until 6 to 8 days after the induction of differentiation.
Reverse transcription of cDNA was completed via the use of 1 µg of RNA with HiScript II Q RT SuperMix for real‐time quantitative PCR (qPCR) (Vazyme Biotech, Nanjing, China, Cat# R222) according to the provided protocols. qPCR was performed with a real‐time PCR system on a QuantStudio1 (Applied Biosystems) using Taq Pro Universal SYBR qPCR Master Mix (Vazyme Biotech., Nanjing, China, Cat# Q712‐02). Relative transcript levels were calculated via the comparative C T method; 36b4 was used as the internal control for cells, whereas Hprt was used as the internal control for tissues. The primer sequences are listed in Table S1 (Supporting Information). The mRNAs from the BAT of control and Gabpα ^Ucp1 KO mice were extracted and subjected to commercial RNA‐seq (BGI Genomics Co., Ltd.) for further DEG and KEGG pathway enrichment analysis. In detail, RNA quality was examined with Fragment (Agilent). High‐quality RNA (RIN > 8.0) was used to library construction. RNA‐seq was performed at BGI Genomics (China) using the Illumina NovaSeq 6000 platform. Clean reads were aligned to the mouse reference genome (GRCm39) using Bowtie2, and transcript quantification was performed with RSEM. […] The RNA‐seq data generated in this study have been deposited in the National Center for Biotechnology Information Sequence Read Archive database under accession code PRJNA1358056.
Cells and tissues were lysed in RIPA lysis buffer (Beyotime, Shanghai, China, Cat# P0013B) containing a protease inhibitor cocktail (MedChem Express, NJ, USA, Cat# HY‐K0010) according to the manufacturer's protocol. Equal amounts of protein were separated on SDS‒PAGE gels and transferred to PVDF membranes (Millipore). The PVDF membranes were blocked in 5% skim milk for 1 h at room temperature and then incubated with primary antibody overnight at 4 °C. The membranes were washed three times with TBST and then incubated with HRP‐conjugated secondary antibodies for 1 h at room temperature. After washing three times, the Western blots were imaged via an enhanced chemiluminescence system.

wild‐type mice [4] = test: Lactate levels in BAT and serum; format: in vivo, wild‐type C57BL/6J mice; settings: GPCBi 5.5 mg kg^−1 in BAT, 23 °C for 7 days then 10 °C for 2 days
Procedure: as §1, with “euthanasia. […]” for “euthanasia.”

wild‐type mice [5] = test: BAT mass, body weight, tissue mass and morphology of mice after BAT injection of peptide; format: in vivo, wild‐type C57BL/6J mice; settings: GPCBi 5.5 mg kg^−1 orthotopically into BAT
Procedure: The mouse experiments were approved by the Institutional Animal Care and Use Committee of the Institute of Model Animals of Tongji Hospital, Huazhong University of Science and Technology, and were performed in compliance with all relevant ethical regulations (approval number: TJH‐202110044). Unless otherwise noted, the mice were housed in a pathogen‐free and climate‐controlled environment (22–25 °C, 40‐60% humidity) and were given free access to food and water on a 12 h light/dark cycle. Wild‐type C57BL/6J mice were obtained from Beijing Huafukang Bioscience Co., Ltd. (Beijing, China). Gabpa ^flox/flox , Adipoq^Cre , and Ucp1^Cre mice were purchased from Cyagen Biosciences, Inc. (Guangzhou, China). For GPCBi treatment, wild‐type mice were orthotopically injected GPCBi (FITC‐[…]; 5.5 mg kg^−1) or scramble peptide (FITC‐[…]; 5.5 mg kg^−1) into the BAT at room temperature for one week. […] For cold exposure, the mice were caged individually and exposed to a temperature of 10 or 4 °C. The mice were euthanized by CO2 inhalation. For studies with specific diets, five‐week‐old male Gabpα ^Adipo KI mice and their respective littermate control mice were fed a HFD (D12492, Research Diets; 60 kcal% fat, 20 kcal% carbohydrates, and 20 kcal% protein; Medicience Ltd., Jiangsu, China) at ambient temperature. The food was changed every week. Body weight was measured every week, and tissue weights were measured at the time of euthanasia.

Q: How did the “oxygen consumption and heat production” value (wild‐type mice [1]) turn out when `CC[C@H](C)[C@H](NC(=O)[C@H](CCCNC(=N)N)NC(=O)[C@H](CS)NC(=O)[C@H](CC(N)=O)NC(=O)[C@H](CC(C)C)NC(=O)[C@H](CC(=O)O)NC(=O)[C@H](CS)NC(=O)[C@H](CCCNC(=N)N)NC(=O)[C@H](CC(=O)O)NC(=O)[C@H](Cc1ccc(O)cc1)NC(=O)[C@@H](NC(=O)[C@H](CC(C)C)NC(=O)[C@H](CCCCN)NC(=O)[C@H](CC(C)C)NC(=O)[C@H](CCCNC(=N)N)NC(=O)[C@@H](NC(=O)[C@@H](NC(=O)[C@H](CCCNC(=N)N)NC(=O)[C@H](CCCNC(=N)N)NC(=O)[C@H](CCCNC(=N)N)NC(=O)[C@H](CCCNC(=N)N)NC(=O)[C@H](CCCNC(=N)N)NC(=O)[C@H](CCC(N)=O)NC(=O)[C@H](CCCNC(=N)N)NC(=O)[C@H](CCCNC(=N)N)NC(=O)[C@H](CCCCN)NC(=O)[C@H](CCCCN)NC(=O)[C@H](CCCNC(=N)N)NC(=O)CNC(=O)[C@H](Cc1ccc(O)cc1)NC(=S)Nc1ccc2c(c1)C(=O)OC21c2ccc(O)cc2Oc2cc(O)ccc21)[C@@H](C)O)[C@@H](C)CC)[C@@H](C)CC)C(=O)N[C@@H](Cc1c[nH]cn1)C(=O)N[C@@H](CCCCN)C(=O)N[C@@H](CCCCN)C(=O)N[C@@H](CO)C(=O)N[C@@H](CCCNC(=N)N)C(=O)N[C@@H](CC(N)=O)C(=O)N[C@@H](CCCCN)C(=O)O` [GPCBi] ({FITC}-YGRKKRRQRRRRRTIRLKLIYDRCDLNCRIHKKSRNK-OH; N-terminus and C-terminus assumed) was run?
A: Its value is “significant decreases”.

Q: What about the “fasting blood glucose levels” value (wild‐type mice [2]) of the same compound?
A: Its value is “markedly increased”.

Q: And the “expression of glycolytic and thermogenic genes” value ([3]; first 2 days of adipogenic differentiation (Figure 4e,f), mRNA n = 3)?
A: The value was “decreased the expression of glycolytic and thermogenic genes”.

Q: What about the “expression of adipogenic gene Adipoq” value ([3]; first 2 days of adipogenic differentiation (Figure 4e,f), n = 3) of the same compound?
A: Its value is “did not change”.

Q: What about the “expression of Ldh and Ucp1 in brown adipocytes” value ([3]; first 2 days of adipogenic differentiation (Figure 5m)) of the same compound?
A: The value was “lower expression”.

Q: And the “regulatory gene expression of the futile lipid cycle, differentiated iBAT‐SVF cells” value ([3]; first 2 days of adipogenic differentiation (Figure S5c))?
A: Its value is “substantially impaired”.

Q: What about the “thermogenic gene ucp1 in GPCBi‐treated brown adipocytes” value ([3]; first 2 days of adipogenic differentiation, without Enoblock (Figure 5p)) of the same compound?
A: The value was “downregulated”.

Q: And the “production of lactate in brown fat” value (wild‐type mice [4]; n = 3 (Figure 5c))?
A: Its value is “substantially suppressed”.

Q: And the “lactate in circulation (serum)” value (wild‐type mice [4]; n = 3 (Figure 5d))?
A: The value was “substantially suppressed”.

Q: What about the BAT morphology (wild‐type mice [5]; one week (Figure S4f)) of the same compound?
A: The BAT morphology was “morphological changes”.

Q: And the “body weight or the morphology or tissue mass of IngWAT, EpiWAT, or the liver” value (wild‐type mice [5]; one week, n = 4 (Figure S4e-g))?
A: The value was “no significant changes”.

Q: What about the BAT mass (wild‐type mice [5]; room temperature, one week, versus scramble peptide, n = 4 (Figure S4g)) of the same compound?
A: Its BAT mass is “reduced BAT mass”.
